{"source": "patent US6706663B2", "about": "“Herbicidal 3-heterocyclic substituted benzisothiazole and benzisoxazole compounds” (Wyeth, priority 2000, dated 2004)", "key": {"[1]": {"tested_on": "TRZAWR (Wheat, Winter, cv Riband)", "assay": "Preemergence herbicidal evaluation", "type": "in vivo, Triticum aestivum", "settings": "rated 4-5 weeks after treatment", "method_in_brief": "(§1)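 Test compound is applied in aqueous acetone to cups just after seeding. Cups are watered and maintained on greenhouse benches. Each cup is scored 0–9 by eye relative to a control after four to five weeks.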"}, "[2]": {"tested_on": "ECHORC (Echinochloa oryzoides)", "assay": "Flooded paddy, postemergence weed control", "type": "in vivo, Echinochloa oryzoides (Ard.) Fritsch.", "settings": "postemergence weeds, rated 3-4 weeks after treatment", "from_the_text": "(§2) Results of herbicide evaluation are expressed on a rating scale (0-9). The scale is based upon a visual observation of plant stand, vigor, malformation, size, chlorosis and overall plant appearance as compared with a control.\n(§3) Plastic containers containing weeds which are 3 to 5 cm tall and rice seedlings at the 1.5 to 2.5 leaf stage are flooded with water. The water is maintained at 1.5 to 3 cm above the soil surface for the duration of the experiment. Test compounds are applied as aqueous/acetone mixtures 50/50 v/v directly into the flood water to provide the equivalent of about 0.0320 to 0.2500 kg/ha of active ingredient. The treated containers are placed on greenhouse benches and cared for in accordance with conventional greenhouse procedures. Three to four weeks after treatment, the test is terminated and each container is examined and herbicidal effect rated according to the rating system provided in Example 87. The compounds evaluated are identified in Example 87 and plant species used are identified in Example 89."}, "[3]": {"tested_on": "AMBEL (Ambrosia artemisifolia)", "assay": "Postemergence herbicidal evaluation", "type": "in vivo, L.", "settings": "postemergence", "method_in_brief": "(§4)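 Seedlings grown for about two weeks were sprayed postemergence and then kept under standard greenhouse care. Injury was rated visually 4–5 weeks after treatment on a 0–9 scale against untreated controls, and ratings from repeat tests were averaged.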"}, "[4]": {"tested_on": "CHEAL (Chenopodium album)", "assay": "Postemergence herbicidal evaluation", "type": "in vivo, L.", "settings": "postemergence", "method_in_brief": "as §4"}, "[5]": {"tested_on": "CASOB (Cassia obtusifolia)", "assay": "Postemergence herbicidal evaluation", "type": "in vivo, L.", "settings": "postemergence", "method_in_brief": "as §4"}, "[6]": {"tested_on": "CYPSE (Cyperus serotinus)", "assay": "Flooded paddy, preemergence weed control", "type": "in vivo, Rottb.", "settings": "rated 3-4 weeks after treatment, 0-9 rating scale", "method_in_brief": "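Herbicidal effect was scored visually on a 0–9 scale against an untreated control 3–4 weeks after treatment. Compounds were applied preemergence as 50/50 v/v aqueous/acetone mixtures into flood water (1.5–3 cm deep over silt loam), at roughly 0.0080 to 0.1250 kg/ha active ingredient.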"}, "[7]": {"tested_on": "SAGPY (Sagittaria pygmaea)", "assay": "Flooded paddy, postemergence weed control", "type": "in vivo, L.", "settings": "postemergence weeds, rated 3-4 weeks after treatment", "from_the_text": "as §2, §3"}, "[8]": {"tested_on": "ZEAMX (Corn, Field)", "assay": "Preemergence herbicidal evaluation", "type": "in vivo, Zea mays, L.", "settings": "rated 4-5 weeks after treatment"}, "[9]": {"tested_on": "ORYSAT (Rice, Tebonnet)", "assay": "Flooded paddy, post-transplant and postemergence rice tolerance", "type": "in vivo, Oryza sativa, (L.) Tebonnet", "settings": "post-transplant rice, rated 3-4 weeks after treatment", "from_the_text": "as §2, §3"}, "[10]": {"tested_on": "TRZAWR (Wheat, Winter, cv Riband)", "assay": "Postemergence herbicidal evaluation", "type": "in vivo, Triticum aestivum", "settings": "postemergence", "method_in_brief": "as §4"}, "[11]": {"tested_on": "ABUTH (Abutilon theophrasti)", "assay": "Preemergence herbicidal evaluation", "type": "in vivo, Medic.", "settings": "rated 4-5 weeks after treatment"}, "[12]": {"tested_on": "CYPSE (Cyperus serotinus)", "assay": "Flooded paddy, postemergence weed control", "type": "in vivo, Rottb.", "settings": "postemergence weeds, rated 3-4 weeks after treatment", "from_the_text": "as §2, §3"}, "[13]": {"tested_on": "GLXMAW (Soybean, Williams)", "assay": "Preemergence herbicidal evaluation", "type": "in vivo, Glycine max, (L.) Merr. cv Williams", "settings": "rated 4-5 weeks after treatment"}, "[14]": {"tested_on": "MOOVA (Monochoria vaginalis)", "assay": "Flooded paddy, postemergence weed control", "type": "in vivo, Presl.", "settings": "postemergence weeds, rated 3-4 weeks after treatment", "from_the_text": "as §2, §3"}, "[15]": {"tested_on": "GLXMA (Soybean)", "assay": "Preemergence herbicidal evaluation", "type": "in vivo, Glycine max, (L.) Merr.", "settings": "preemergence, rated 4-5 weeks after treatment"}, "[16]": {"tested_on": "GALAP (Galium aparine)", "assay": "Preemergence herbicidal evaluation", "type": "in vivo", "settings": "preemergence, rated 4-5 weeks after treatment", "method_in_brief": "as §1"}, "[17]": {"settings": "preemergence, rate 0.0620 kg/ha"}, "[18]": {"settings": "preemergence, rate 0.1250 kg/ha"}, "[19]": {"settings": "preemergence, rate 0.2500 kg/ha"}}, "data": [{"smiles": "Cn1c(C(F)(F)F)cc(=O)n(-c2ccc3snc(C4OC(C)(C)C(C)(C)O4)c3c2)c1=O", "note": "[Compound 56, 1-methyl-3-[3-(4,4,5,5-tetramethyl-1,3-dioxolan-2-yl)-1,2-benzisothiazol-5-yl]-6-(trifluoromethyl)uracil]", "values": [{"measurement": "Preemergence herbicidal rating TRZAWR", "setting": "[1]; Rate 0.0620 kg/ha", "value": 6.0}, {"measurement": "Preemergence herbicidal rating TRZAWR", "setting": "[1]; Rate 0.1250 kg/ha", "value": 6.0}, {"measurement": "Preemergence herbicidal rating TRZAWR", "setting": "[1]; Rate 0.2500 kg/ha", "value": 7.0}, {"measurement": "herbicide rating (0-9) ECHORC", "setting": "[2]; 0.0320 kg/ha into flood water", "value": 9.0}, {"measurement": "herbicide rating (0-9) ECHORC", "setting": "[2]; 0.0620 kg/ha into flood water", "value": 9.0}, {"measurement": "herbicide rating (0-9) ECHORC", "setting": "[2]; 0.1250 kg/ha into flood water", "value": 9.0}, {"measurement": "AMBEL herbicidal rating", "setting": "[3]; rate 0.0320 kg/ha", "value": 9.0}, {"measurement": "AMBEL herbicidal rating", "setting": "[3]; rate 0.0620 kg/ha", "value": 9.0}, {"measurement": "CHEAL herbicidal rating", "setting": "[4]; rate 0.0320 kg/ha", "value": 7.0}, {"measurement": "CHEAL herbicidal rating", "setting": "[4]; rate 0.0620 kg/ha", "value": 9.0}, {"measurement": "CASOB herbicidal rating", "setting": "[5]; rate 0.0320 kg/ha", "value": 3.0}, {"measurement": "CASOB herbicidal rating", "setting": "[5]; rate 0.0620 kg/ha", "value": 7.0}, {"measurement": "herbicidal rating, CYPSE", "setting": "[6]; rate 0.0080 kg/ha", "value": 0.0}, {"measurement": "herbicidal rating, CYPSE", "setting": "[6]; rate 0.0320 kg/ha", "value": 5.5}, {"measurement": "herbicidal rating, CYPSE", "setting": "[6]; rate 0.1250 kg/ha", "value": 9.0}, {"measurement": "herbicide rating (0-9) SAGPY", "setting": "[7]; 0.0320 kg/ha into flood water", "value": 0.0}, {"measurement": "herbicide rating (0-9) SAGPY", "setting": "[7]; 0.0620 kg/ha into flood water", "value": 0.0}, {"measurement": "herbicide rating (0-9) SAGPY", "setting": "[7]; 0.1250 kg/ha into flood water", "value": 2.0}, {"measurement": "Preemergence herbicidal rating ZEAMX", "setting": "[8]; Rate 0.0620 kg/ha", "value": 7.0}, {"measurement": "Preemergence herbicidal rating ZEAMX", "setting": "[8]; Rate 0.1250 kg/ha", "value": 7.0}, {"measurement": "Preemergence herbicidal rating ZEAMX", "setting": "[8]; Rate 0.2500 kg/ha", "value": 8.0}, {"measurement": "herbicide rating (0-9) ORYSAT (rice tolerance)", "setting": "[9]; 0.0320 kg/ha into flood water", "value": 7.0}, {"measurement": "herbicide rating (0-9) ORYSAT (rice tolerance)", "setting": "[9]; 0.0620 kg/ha into flood water", "value": 7.0}, {"measurement": "herbicide rating (0-9) ORYSAT (rice tolerance)", "setting": "[9]; 0.1250 kg/ha into flood water", "value": 9.0}, {"measurement": "TRZAWR herbicidal rating", "setting": "[10]; rate 0.0320 kg/ha", "value": 3.5}, {"measurement": "TRZAWR herbicidal rating", "setting": "[10]; rate 0.0620 kg/ha", "value": 4.5}, {"measurement": "Preemergence herbicidal rating ABUTH", "setting": "[11]; Rate 0.0620 kg/ha", "value": 9.0}, {"measurement": "Preemergence herbicidal rating ABUTH", "setting": "[11]; Rate 0.1250 kg/ha", "value": 9.0}, {"measurement": "Preemergence herbicidal rating ABUTH", "setting": "[11]; Rate 0.2500 kg/ha", "value": 9.0}, {"measurement": "herbicide rating (0-9) CYPSE", "setting": "[12]; 0.0620 kg/ha into flood water", "value": 0.0}, {"measurement": "herbicide rating (0-9) CYPSE", "setting": "[12]; 0.1250 kg/ha into flood water", "value": 9.0}, {"measurement": "Preemergence herbicidal rating GLXMAW", "setting": "[13]; Rate 0.0620 kg/ha", "value": 7.5}, {"measurement": "Preemergence herbicidal rating GLXMAW", "setting": "[13]; Rate 0.1250 kg/ha", "value": 9.0}, {"measurement": "Preemergence herbicidal rating GLXMAW", "setting": "[13]; Rate 0.2500 kg/ha", "value": 9.0}, {"measurement": "herbicide rating (0-9) MOOVA", "setting": "[14]; 0.0320 kg/ha into flood water", "value": 2.0}, {"measurement": "herbicide rating (0-9) MOOVA", "setting": "[14]; 0.0620 kg/ha into flood water", "value": 4.0}, {"measurement": "herbicide rating (0-9) MOOVA", "setting": "[14]; 0.1250 kg/ha into flood water", "value": 7.0}]}, {"smiles": "Cn1c(C(F)(F)F)cc(=O)n(-c2ccc3snc(C4OCC(C[S+](C)[O-])O4)c3c2)c1=O", "note": "(stereo not drawn) [Compound 88, 1-methyl-3-[3-[4-[(methylsulfinyl)methyl]-1,3-dioxolan-2-yl]-1,2-benzisothiazol-5-yl]-6-(trifluoromethyl)uracil]", "values": [{"measurement": "Preemergence herbicidal rating GLXMA", "setting": "[15]; rate 0.0620 kg/ha", "value": 9.0}, {"measurement": "Preemergence herbicidal rating GLXMA", "setting": "[15]; rate 0.1250 kg/ha", "value": 9.0}, {"measurement": "Preemergence herbicidal rating GLXMA", "setting": "[15]; rate 0.2500 kg/ha", "value": 9.0}, {"measurement": "AMBEL herbicidal rating", "setting": "[3]; rate 0.0320 kg/ha", "value": 9.0}, {"measurement": "AMBEL herbicidal rating", "setting": "[3]; rate 0.0620 kg/ha", "value": 9.0}, {"measurement": "CHEAL herbicidal rating", "setting": "[4]; rate 0.0320 kg/ha", "value": 9.0}, {"measurement": "CHEAL herbicidal rating", "setting": "[4]; rate 0.0620 kg/ha", "value": 9.0}, {"measurement": "CASOB herbicidal rating", "setting": "[5]; rate 0.0320 kg/ha", "value": 5.0}, {"measurement": "CASOB herbicidal rating", "setting": "[5]; rate 0.0620 kg/ha", "value": 9.0}, {"measurement": "Preemergence herbicidal rating GALAP", "setting": "[16]; rate 0.0620 kg/ha", "value": 7.0}, {"measurement": "Preemergence herbicidal rating GALAP", "setting": "[16]; rate 0.1250 kg/ha", "value": 9.0}, {"measurement": "Preemergence herbicidal rating GALAP", "setting": "[16]; rate 0.2500 kg/ha", "value": 9.0}, {"measurement": "Preemergence herbicidal rating ZEAMX", "setting": "[8]; [17]", "value": 3.5}, {"measurement": "Preemergence herbicidal rating ZEAMX", "setting": "[8]; [18]", "value": 6.0}, {"measurement": "Preemergence herbicidal rating ZEAMX", "setting": "[8]; [19]", "value": 7.0}, {"measurement": "TRZAWR herbicidal rating", "setting": "[10]; rate 0.0320 kg/ha", "value": 3.0}, {"measurement": "TRZAWR herbicidal rating", "setting": "[10]; rate 0.0620 kg/ha", "value": 3.5}, {"measurement": "Preemergence herbicidal rating ABUTH", "setting": "[11]; [17]", "value": 9.0}, {"measurement": "Preemergence herbicidal rating ABUTH", "setting": "[11]; [18]", "value": 9.0}, {"measurement": "Preemergence herbicidal rating ABUTH", "setting": "[11]; [19]", "value": 9.0}, {"measurement": "Preemergence herbicidal rating GLXMAW", "setting": "[13]; [17]", "value": 9.0}, {"measurement": "Preemergence herbicidal rating GLXMAW", "setting": "[13]; [18]", "value": 9.0}, {"measurement": "Preemergence herbicidal rating GLXMAW", "setting": "[13]; [19]", "value": 9.0}]}]}
